Measurements published in patent US4948880A, “Anthracycline derivatives having cytostatic activity” (Behringwerke Aktiengesellschaft, priority 1986, dated 1990).
Values after ≈ are worked out from the molar mass of the structure shown. Like-named read-outs stand apart in the source and are kept apart here.

Assays:
[1] = system: mouse L1210 leukemia cells; test: Formation of L1210 leukemia cell colonies in soft agar (cytostatic activity); assay type: cell-based; conditions: Mus musculus, colonies > 60 μm, % of untreated control
Protocol: The cytostatic activity of the compounds according to the invention have been tested using mouse L1210 leukemia cells. Use was made for this by the formation of L1210 leukemia cell colonies in agar plates. This method is used to detect the effect of the test substances on the growth behavior of the cells over 1 hour or over several generations. In this connection, with a cell cycle time of 10-12 hours, about 14 consecutive generations are observed in a 7-day duration of the test. In this test, the substances having cytostatic activity according to the invention bring about a reduction, compared with an untreated control sample, in the number of colonies which is to be observed.
Procedure for Determining the Formation of L1210 Leukemia Cell Colonies in Soft Agar
500 leukemia cells per plate were incubated with various concentrations of the test substance at 37° C. for 1 hour. These cells were then washed twice with McCoy 5A medium, 0.3% agar was added, and finally the mixture was poured into Petri dishes. Controls were incubated only with fresh medium. In place of the incubation for one hour, in some cases various concentrations and test substances were mixed with the upper agar layer in order in this way to achieve continuous exposure of the cells throughout the incubation time. After the agar had solidified, the plates were incubated in an incubator at 37° C. for 7 days (5% by volume CO2, 95% relative atmospheric humidity). Thereafter the number of colonies with a diameter of more than 60 μm which had formed was counted. The results have been stated as the number of colonies in treated agar plates as a percentage of the untreated control. The dose-effect graph obtained in this way was used to determine the IC50 as a measure of the activity of the substance. The results for the compounds described here are compiled in Table 1 which follows, comparing with adriamycin.

[2] = light / sunlight; cited from earlier work
[3] = L1210, 168 h, read-out: Continuous incubation IC50, continuous exposure, test substance mixed with upper agar layer, 7 days, 37° C.
[4] = L1210, read-out: 1 h incubation IC50, 1 hour incubation with test substance at 37° C., then washed, 7 days in agar
[5] = L1210, 168 h, continuous exposure, test substance mixed with upper agar layer, 7 days, 37° C., read-out: Continuous incubation IC50
[6] = L1210, 1 hour incubation with test substance at 37° C., then washed, 7 days in agar, read-out: 1 h incubation IC50

Row | Compound | IC50 [1, 3] | IC50 [1, 4] | photolytic decomposition on exposure to light [2] | IC50 [1, 5] | IC50 [1, 6]
1 | COc1cccc2c1C(=O)c1c(O)c3c(c(O)c1C2=O)C[C@@](O)(C(=O)CO)C[C@@H]3O[C@H]1C[C@H](N)[C@H](O)[C@H](C)O1 [Adriamycin, 7-O-α-L-daunosaminyl-adriamycinone, reference compound] | 0.02 µg/mL (≈ 0.0368 µM) | 0.04 µg/mL (≈ 0.0736 µM) | photolytically decomposed on exposure to light |  | 
2 | CC[C@@]1(O)C[C@H](O[C@H]2C[C@H](N(C)C)[C@H](O[C@H]3C[C@H](O)[C@H](O[C@H]4CCC(=O)[C@H](C)O4)[C@H](C)O3)[C@H](C)O2)c2c(cc3c(c2O)C(=O)c2c(O)cccc2C3=O)[C@H]1C(=O)OC [aclacinomycin A] |  |  | undergoes photolytic decomposition to a small extent |  | 
3 | CCCCCN(C)[C@H]1C[C@H](O[C@H]2C[C@](O)(CC)[C@H](O)c3c(O)c4c(c(O)c32)C(=O)c2c(O)cccc2C4=O)O[C@@H](C)[C@H]1O [compound 18, 7-O-(3'-N-Methyl-3'-N-pentyl-α-L-daunosaminyl)-β-rhodomycinone] |  |  |  | 0.075 µg/mL (≈ 0.125 µM) | 0.48 µg/mL (≈ 0.8 µM)
4 | CCCCCCN(C)[C@H]1C[C@H](O[C@H]2C[C@](O)(CC)[C@H](O)c3c(O)c4c(c(O)c32)C(=O)c2c(O)cccc2C4=O)O[C@@H](C)[C@H]1O [compound 19, 7-O-(3'-N-Hexyl-3'-N-methyl-α-L-daunosaminyl)-β-rhodomycinone] |  |  |  | 0.13 µg/mL (≈ 0.212 µM) | 1.2 µg/mL (≈ 1.96 µM)
5 | CCCCCCCN(C)[C@H]1C[C@H](O[C@H]2C[C@](O)(CC)[C@H](O)c3c(O)c4c(c(O)c32)C(=O)c2c(O)cccc2C4=O)O[C@@H](C)[C@H]1O [compound 20, 7-O-(3'-N-Heptyl-3'-N-methyl-α-L-daunosaminyl)-β-rhodomycinone] |  |  |  | 0.38 µg/mL (≈ 0.605 µM) | 1.9 µg/mL (≈ 3.03 µM)
6 | CCCCCCCCN(C)[C@H]1C[C@H](O[C@H]2C[C@](O)(CC)[C@H](O)c3c(O)c4c(c(O)c32)C(=O)c2c(O)cccc2C4=O)O[C@@H](C)[C@H]1O [compound 21, 7-O-(3'-N-Octyl-3'-N-methyl-α-L-daunosaminyl)-β-rhodomycinone] |  |  |  | 0.46 µg/mL (≈ 0.717 µM) | 2.8 µg/mL (≈ 4.36 µM)
7 | CC[C@@]1(O)C[C@H](O[C@H]2C[C@H](N(C)Cc3ccc(Cl)cc3)[C@H](O)[C@H](C)O2)c2c(O)c3c(c(O)c2[C@H]1O)C(=O)c1cccc(O)c1C3=O [compound 22, 7-O-(3'-N-(4-Chlorobenzyl)-3'-N-methyl-α-L-daunosaminyl)-β-rhodomycinone] |  |  |  | 0.026 µg/mL (≈ 0.0397 µM) | 0.95 µg/mL (≈ 1.45 µM)
8 | CC[C@@]1(O)C[C@H](O[C@H]2C[C@H](N(C)Cc3ccc(Br)cc3)[C@H](O)[C@H](C)O2)c2c(O)c3c(c(O)c2[C@H]1O)C(=O)c1cccc(O)c1C3=O [compound 23, 7-O-(3'-N-(4-Bromobenzyl)-3'-N-methyl-α-L-daunosaminyl)-β-rhodomycinone] |  |  |  | 0.08 µg/mL (≈ 0.115 µM) | > 1 µg/mL
9 | CC[C@@]1(O)C[C@H](O[C@H]2C[C@H](N(C)Cc3ccc([N+](=O)[O-])cc3)[C@H](O)[C@H](C)O2)c2c(O)c3c(c(O)c2[C@H]1O)C(=O)c1cccc(O)c1C3=O [compound 24, 7-O-(3'-N-(4-Nitrobenzyl)-3'-N-methyl-α-L-daunosaminyl)-β-rhodomycinone] | 0.16 µg/mL (≈ 0.241 µM) | 2.5 µg/mL (≈ 3.76 µM) |  |  | 
10 | CC[C@@]1(O)C[C@H](O[C@H]2C[C@H](N(C)Cc3ccc(C#N)cc3)[C@H](O)[C@H](C)O2)c2c(O)c3c(c(O)c2[C@H]1O)C(=O)c1cccc(O)c1C3=O [compound 25, 7-O-(3'-N-(4-Cyanobenzyl)-3'-N-methyl-α-L-daunosaminyl)-β-rhodomycinone] | 0.11 µg/mL (≈ 0.171 µM) | > 1 µg/mL |  |  | 
11 | CCCCCN(C)[C@H]1C[C@H](O[C@H]2C[C@](O)(CC)[C@H](O)c3c(O)c4c(c(O)c32)C(=O)c2c(O)ccc(O)c2C4=O)O[C@@H](C)[C@H]1O [compound 27, 7-O-(3'-N-Methyl-3'-N-pentyl-α-L-daunosaminyl)-β-isorhodomycinone] |  |  |  | 0.06 µg/mL (≈ 0.0975 µM) | > 1 µg/mL
12 | CC[C@@]1(O)C[C@H](O[C@H]2C[C@H](N(C)Cc3ccccc3)[C@H](O)[C@H](C)O2)c2c(O)c3c(c(O)c2[C@H]1O[C@H]1C[C@H](N(C)Cc2ccccc2)[C@H](O)[C@H](C)O1)C(=O)c1cccc(O)c1C3=O [compound 28, 7,10-O-bis-(3'-N-Benzyl-3'-N-methyl-α-L-daunosaminyl)-β-rhodomycinone] |  |  |  | 0.0065 µg/mL (≈ 0.00762 µM) | 0.12 µg/mL (≈ 0.141 µM)
13 | CCCCCN(C)[C@H]1C[C@H](O[C@H]2C[C@](O)(CC)[C@H](O[C@H]3C[C@H](N(C)CCCCC)[C@H](O)[C@H](C)O3)c3c(O)c4c(c(O)c32)C(=O)c2c(O)cccc2C4=O)O[C@@H](C)[C@H]1O [compound 29, 7,10-O-bis-(3'-N-Methyl-3'-N-pentyl-α-L-daunosaminyl)-β-rhodomycinone] |  |  |  | 0.1 µg/mL (≈ 0.123 µM) | 0.6 µg/mL (≈ 0.738 µM)
14 | CN[C@H]1C[C@H](O[C@H]2C[C@](O)(C(C)O)Cc3c(O)c4c(c(O)c32)C(=O)c2c(OC)cccc2C4=O)O[C@@H](C)[C@H]1O (some centres unmarked) [compound 32, 3'-N-Methyl-13-dihydrodaunorubicin] |  |  |  | 0.5 µg/mL (≈ 0.92 µM) | 1.3 µg/mL (≈ 2.39 µM)
15 | COc1cccc2c1C(=O)c1c(O)c3c(c(O)c1C2=O)C[C@@](O)(C(C)=O)C[C@@H]3O[C@H]1C[C@H](N)[C@H](O)[C@H](C)O1 [daunomycin, 7-O-α-L-daunosaminyl-daunomycinone] |  |  | photolytically decomposed on exposure to light |  | 
